# Experimental data reported in PubChem BioAssay (NCI).
#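 Dose response: 5 concentrations. Exposure: 48 h. Format: 96-well plates. Endpoint: linear interpolation; highest concentration if not reached. Abbreviation: GI50, concentration required for 50% inhibition of growth. The concentration for full growth arrest is given as TGI.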 Where a SMILES comes first, the peptide text is derived from it. [ ]: non-standard residue; d: D form. The star is where a group is joined. ξ: configuration not given here. X6 = FC(F)(F)c1cc(NC(=S)*)cc(C(F)(F)F)c1; ξF = NC(Cc1ccccc1)C(=O)O
# Assays:
# Test in all cases: NCI anticancer screen, dose series, 48 h
# EKVX NSCLC = test system: EKVX NSCLC
# UACC-62 melanoma = test system: UACC-62 melanoma
# K-562 leukemia = test system: K-562 leukemia
# SNB-19 CNS = test system: SNB-19 CNS
# HOP-92 NSCLC = test system: HOP-92 NSCLC
# RPMI-8226 leukemia = test system: RPMI-8226 leukemia
# SF-295 CNS = test system: SF-295 CNS
# HOP-62 NSCLC = test system: HOP-62 NSCLC
# IGROV1 ovarian = test system: IGROV1 ovarian
# SR leukemia = test system: SR leukemia
SMILES,TGI (EKVX NSCLC),TGI (UACC-62 melanoma),TGI (K-562 leukemia),TGI (SNB-19 CNS),TGI (HOP-92 NSCLC),TGI (RPMI-8226 leukemia),TGI (SF-295 CNS),TGI (HOP-62 NSCLC),TGI (IGROV1 ovarian),TGI (SR leukemia),GI50 (EKVX NSCLC),GI50 (SR leukemia),GI50 (UACC-62 melanoma),GI50 (K-562 leukemia),GI50 (SNB-19 CNS),GI50 (HOP-92 NSCLC),GI50 (SF-295 CNS),GI50 (HOP-62 NSCLC),GI50 (IGROV1 ovarian)
COC1(OC)CCC2C1C1CCC(OC)(OC)C21 (configuration not stated),> 50 µM,> 50 µM,> 50 µM,> 50 µM,> 50 µM,> 50 µM,> 50 µM,> 50 µM,> 50 µM,,,,,,,,,,
O=C(/C=C/c1ccccc1)NC1C=Nc2ccc(Cl)cc2NC1=O (configuration not stated),> 100 µM,> 100 µM,59 µM,> 100 µM,> 100 µM,,> 100 µM,> 100 µM,> 100 µM,56.3 µM,,,,,,,,,
CCCCC(=O)OCC(=O)[C@]1(O)Cc2c(O)c3c(c(O)c2[C@@H](OC2CC(NC(=O)C(F)(F)F)C(O)C(C)O2)C1)C(=O)c1c(OC)cccc1C3=O (some centres not stated),13.5 µM,1.04 µM,> 21.9 µM,3.02 µM,3.88 µM,32.7 µM,2.19 µM,0.988 µM,17 µM,,,,,,,,,,
O=C1C=C(Cl)C(=O)C(c2ccc(Cl)cc2)=C1,30.2 µM,42.4 µM,23.8 µM,> 100 µM,35.7 µM,83.8 µM,> 100 µM,44 µM,30.8 µM,,,,,,,,,,
Clc1cc2nsnc2c(Cl)n1,> 100 µM,> 100 µM,51.9 µM,36.7 µM,33.1 µM,62.5 µM,> 100 µM,> 100 µM,86.3 µM,,,,,,,,,,
N#CC(c1ccc(Cl)cc1)c1cccc(C(C#N)c2ccc(Cl)cc2)n1 (configuration not stated),> 100 µM,> 100 µM,> 100 µM,> 100 µM,60.6 µM,> 100 µM,> 100 µM,> 100 µM,,> 100 µM,,,,,,,,,
COC1CCC2C(NS(=O)(=O)c3ccc(C)cc3)CCCC2O1 (configuration not stated) (tested in a mixture with another compound),> 34.5 µM,> 34.5 µM,27.8 µM,> 34.5 µM,28 µM,14.7 µM,21.4 µM,> 34.5 µM,> 34.5 µM,,,,,,,,,,
COc1cc2c(cc1OC)-c1c3cc(O)ccc3nn[n+]1CC2,> 100 µM,> 100 µM,> 100 µM,> 100 µM,,> 100 µM,> 100 µM,> 100 µM,> 100 µM,,,,,,,,,,
CCCCCCCCCCCOc1ccc(C(=O)C(=O)c2ccc(OCCCCCCCCCCC)c(OCCCCCCCCCCC)c2)cc1OCCCCCCCCCCC,> 100 µM,> 100 µM,> 100 µM,> 100 µM,,> 100 µM,> 100 µM,> 100 µM,> 100 µM,,,,,,,,,,
COC(=O)[C@@H](NC(=O)CNC(=O)[C@H]1CCCN1C(=O)C(Cc1ccccc1)NC(=S)Nc1cc(C(F)(F)F)cc(C(F)(F)F)c1)C(C)C (some centres not stated) (X6-[ξF][dP]GV-OMe),22.3 µM,3.98 µM,30.1 µM,9.49 µM,6.37 µM,,6.12 µM,3.62 µM,10.3 µM,8.58 µM,3.12 µM,2.57 µM,1.79 µM,3.27 µM,2.56 µM,1.95 µM,2.33 µM,1.92 µM,3.31 µM
